From ChEMBL document CHEMBL1123649, “Congener derivatives and conjugates of histamine: synthesis and tissue and receptor selectivity of the derivatives” (J Med Chem, 1987)

How the values were obtained:
[1] = target: Histamine H1 receptor (Homo sapiens) (UniProt P35367); assay: Effect on peripheral vasculature of the rabbit as percentage change in contractility.; type: functional, tissue-based; settings: Oryctolagus cuniculus, target entry is the homologue from another species
[2] = target: Histamine H2 receptor (Cavia porcellus) (UniProt P47747); assay: Relative potency in guinea pig myocardium (GPM) by adenylate cyclase stimulation assay, H2 receptor response; type: functional, tissue-based
Histamine H2 receptor (Cavia porcellus), sequence (P47747 whole entry): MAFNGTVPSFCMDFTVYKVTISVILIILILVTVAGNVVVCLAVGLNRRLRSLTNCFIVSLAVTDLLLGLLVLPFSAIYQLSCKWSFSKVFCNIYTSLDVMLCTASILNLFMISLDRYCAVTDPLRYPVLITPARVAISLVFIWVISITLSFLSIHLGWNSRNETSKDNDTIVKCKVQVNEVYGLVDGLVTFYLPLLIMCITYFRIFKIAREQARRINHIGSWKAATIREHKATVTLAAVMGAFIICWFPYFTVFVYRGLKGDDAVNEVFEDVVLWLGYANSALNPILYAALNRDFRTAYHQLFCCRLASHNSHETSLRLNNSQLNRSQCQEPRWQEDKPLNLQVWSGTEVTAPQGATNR

[3] = target: Histamine H2 receptor (Mus musculus) (UniProt P97292); assay: Relative potency by cAMP assay in natural suppressor cells.; type: functional, cell-based
Histamine H2 receptor (Mus musculus), sequence (P97292 whole entry): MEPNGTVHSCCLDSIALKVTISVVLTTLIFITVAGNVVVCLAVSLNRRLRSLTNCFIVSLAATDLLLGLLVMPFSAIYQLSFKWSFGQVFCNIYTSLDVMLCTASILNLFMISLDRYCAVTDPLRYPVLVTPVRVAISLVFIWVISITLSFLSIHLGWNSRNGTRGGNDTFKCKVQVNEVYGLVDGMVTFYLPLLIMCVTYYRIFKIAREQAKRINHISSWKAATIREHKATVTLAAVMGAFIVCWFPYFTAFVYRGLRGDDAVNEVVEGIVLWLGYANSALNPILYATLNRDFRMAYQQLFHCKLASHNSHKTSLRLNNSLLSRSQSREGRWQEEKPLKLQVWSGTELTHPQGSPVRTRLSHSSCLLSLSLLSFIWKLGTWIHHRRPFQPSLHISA

Histamine H1 receptor (Homo sapiens), sequence (P35367 whole entry): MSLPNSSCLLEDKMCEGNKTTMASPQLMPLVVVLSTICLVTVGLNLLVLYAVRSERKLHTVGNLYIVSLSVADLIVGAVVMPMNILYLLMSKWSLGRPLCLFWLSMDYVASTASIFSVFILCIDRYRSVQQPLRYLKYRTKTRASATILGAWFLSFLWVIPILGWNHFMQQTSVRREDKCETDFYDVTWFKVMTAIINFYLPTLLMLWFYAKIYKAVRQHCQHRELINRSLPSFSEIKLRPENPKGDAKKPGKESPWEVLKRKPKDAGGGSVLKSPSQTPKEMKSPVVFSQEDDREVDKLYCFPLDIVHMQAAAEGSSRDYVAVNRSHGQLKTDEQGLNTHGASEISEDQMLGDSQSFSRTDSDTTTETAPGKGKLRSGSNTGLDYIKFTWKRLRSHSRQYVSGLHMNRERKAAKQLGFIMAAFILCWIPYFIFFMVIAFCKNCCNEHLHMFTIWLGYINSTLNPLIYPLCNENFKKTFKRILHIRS

Structure (SMILES) | Change [1] [%] | Relative potency [2] | Relative potency [3]
CC(CCCC(=O)Nc1ccc(C(F)(F)F)cc1)NCCc1c[nH]cn1 (stereo not given) | 0 | 0 | 0
CCCCNC(=O)CCCCC(C)NCCc1c[nH]cn1 (stereo not given) | 0 | 0.01 | 0
CCCCCC(=O)NCCc1c[nH]cn1 | 0 | 0 | 0
CCCCCC(C)NCCc1c[nH]cn1 (stereo not given) | 0 | 0 | 0
Cc1ccc(NC(=O)CCCCCC(C)NCCc2c[nH]cn2)cc1 (stereo not given) | 0 | 0.02 | 2
Cc1ccc(NC(=O)CCCC(C)NCCc2c[nH]cn2)cc1 (stereo not given) | 90 | 0.01 | 4000
Cc1ccc(NC(=O)CCCCNCCc2c[nH]cn2)cc1 | 0 | 0.09 | 2
Cc1ccc(NC(=O)CCCCC(C)NCCc2c[nH]cn2)cc1 (stereo not given) | 0 | 0.07 | 3
NCCc1c[nH]cn1 | 284 | 1 | 1
Cc1ccc(NC(=O)CCC(C)NCCc2c[nH]cn2)cc1 (stereo not given) | 0 | – | 0
CC(CCCCC(=O)Nc1ccc(C(F)(F)F)cc1)NCCc1c[nH]cn1 (stereo not given) | – | 0 | 40000
CC(CCC(=O)Nc1ccc(C(F)(F)F)cc1)NCCc1c[nH]cn1 (stereo not given) | 0 | – | 0
CNC(=O)CNC(=O)C(Cc1ccccc1)N(NC(=O)CCCCC(C)NCCc1c[nH]cn1)C(=O)OC(C)(C)C (stereo not given) | 0 | 0.0007 | 0
CNC(=O)CNC(=O)C(Cc1ccccc1)N(NC(=O)CCCC(C)NCCc1c[nH]cn1)C(=O)OC(C)(C)C (stereo not given) | 0 | 0 | 0
CC(CC(=O)Nc1ccc(C(F)(F)F)cc1)NCCc1c[nH]cn1 (stereo not given) | 0 | – | 0
Cc1ccc(NC(=O)CCCC(=O)NCCc2c[nH]cn2)cc1 | 0 | 0 | 4.4
CCCCCCNCCc1c[nH]cn1 | 93 | 0 | 5
CNC(=O)CNC(=O)C(Cc1ccccc1)N(NC(=O)CCC(C)NCCc1c[nH]cn1)C(=O)OC(C)(C)C (stereo not given) | 0 | 0 | 0
CC(CCCCC(=O)Nc1ccccc1C(F)(F)F)NCCc1c[nH]cn1 (stereo not given) | 0 | 0 | 0
Cc1ccc(NC(=O)CC(C)NCCc2c[nH]cn2)cc1 (stereo not given) | 0 | – | 0
